Measured values taken from ChEMBL document CHEMBL5385856, “Novel 1,4,5,6-tetrahydrocyclopenta[d]imidazole-5-carboxamide-based JNK3 inhibitors: Design, synthesis, molecular docking, and therapeutic potential in neurodegenerative diseases” (Eur J Med Chem, 2023).

These compounds were tested against Mitogen-activated protein kinase 10 (Homo sapiens, UniProt P53779) (assay: Inhibition of JNK3 (unknown origin) using ATF2 as substrate incubated for 40 mins in presence of [gamma33P]ATP by scintillation counting analysis). Details: not given.
Chain of Mitogen-activated protein kinase 10 (P53779 whole entry): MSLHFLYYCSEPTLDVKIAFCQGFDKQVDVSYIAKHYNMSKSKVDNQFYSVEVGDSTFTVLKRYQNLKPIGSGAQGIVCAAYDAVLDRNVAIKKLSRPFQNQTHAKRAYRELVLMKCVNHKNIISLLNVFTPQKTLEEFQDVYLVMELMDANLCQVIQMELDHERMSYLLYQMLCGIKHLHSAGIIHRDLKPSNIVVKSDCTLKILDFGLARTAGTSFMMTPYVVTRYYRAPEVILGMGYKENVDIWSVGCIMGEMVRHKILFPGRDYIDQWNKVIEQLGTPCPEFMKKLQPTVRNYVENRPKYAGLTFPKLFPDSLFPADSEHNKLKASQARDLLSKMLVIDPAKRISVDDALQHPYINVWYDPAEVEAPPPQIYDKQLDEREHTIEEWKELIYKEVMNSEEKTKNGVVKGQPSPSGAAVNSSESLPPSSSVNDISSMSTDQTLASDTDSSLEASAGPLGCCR
Compound `NC(=O)C1Cc2nc(-c3ccc4c(c3)CCO4)n(-c3ccnc(N[C@H]4CCN(C(=O)C5CC5)C4)n3)c2C1` (stereo partly drawn) has an IC50 of 87.3 nM.
`NC(=O)C1Cc2nc(-c3ccc4ccccc4c3)n(-c3ccnc(N[C@@H]4CCN(C(=O)C5CC5)C4)n3)c2C1` (stereo partly drawn) showed an IC50 of 24.9 nM.
`CCOC(=O)C1Cc2nc(-c3ccc4c(c3)CCO4)n(-c3ccnc(N[C@@H]4CCCN(C(=O)C5CC5)C4)n3)c2C1` (stereo partly drawn) showed an IC50 of 10.4 nM.
For `NC(=O)C1Cc2nc(-c3ccc4c(c3)OCO4)n(-c3ccnc(N[C@H]4CCCN(C(=O)C5CC5)C4)n3)c2C1` (stereo partly drawn), the IC50 was 10 nM.
`CNC(=O)C1Cc2nc(-c3ccc4c(c3)OCO4)n(-c3ccnc(N[C@H]4CCN(C(=O)C5CC5)C4)n3)c2C1` (stereo partly drawn) was tested, and the IC50 was 180 nM.
`CNC(=O)C1Cc2nc(-c3ccc(F)c(C(F)(F)F)c3)n(-c3ccnc(N[C@H]4CCN(C(=O)C5CC5)C4)n3)c2C1` (stereo partly drawn) gave an IC50 of 601 nM.
`CCOC(=O)C1Cc2nc(-c3ccc4c(c3)CCO4)n(-c3ccnc(N[C@@H]4CCN(C(=O)C5CC5)C4)n3)c2C1` (stereo partly drawn) gave an IC50 of 21.5 nM.
With `CCOC(=O)C1Cc2nc(-c3ccc4c(c3)CCO4)n(-c3ccnc(N[C@H]4CCCN(C(=O)C5CC5)C4)n3)c2C1` (stereo partly drawn) the IC50 was 31.4 nM.
`NC(=O)C1Cc2nc(-c3ccc(F)c(C(F)(F)F)c3)n(-c3ccnc(N[C@H]4CCCN(C(=O)C5CC5)C4)n3)c2C1` (stereo partly drawn) gave an IC50 of 6.39 nM.
Work on `CCOC(=O)C1Cc2nc(-c3ccc4c(c3)OCO4)n(-c3ccnc(N[C@@H]4CCCN(C(=O)C5CC5)C4)n3)c2C1` (stereo partly drawn) yielded an IC50 of 1.2 nM.
Work on `CNC(=O)C1Cc2nc(-c3ccc(Cl)c(Cl)c3)n(-c3ccnc(N[C@@H]4CCN(C(=O)C5CC5)C4)n3)c2C1` (stereo partly drawn) yielded an IC50 of 9.36 nM.
Compound `NC(=O)C1Cc2nc(-c3ccc4c(c3)CCO4)n(-c3ccnc(N[C@@H]4CCCN(C(=O)C5CC5)C4)n3)c2C1` (stereo partly drawn) has an IC50 of 8.92 nM.
Compound `NC(=O)C1Cc2nc(-c3ccc4c(c3)OCO4)n(-c3ccnc(N[C@@H]4CCN(C(=O)C5CC5)C4)n3)c2C1` (stereo partly drawn) has an IC50 of 103 nM.
`NC(=O)C1Cc2nc(-c3ccc4ccccc4c3)n(-c3ccnc(N[C@H]4CCN(C(=O)C5CC5)C4)n3)c2C1` (stereo partly drawn) gave an IC50 of 14.8 nM.
For `CCOC(=O)C1Cc2nc(-c3ccc(F)c(C(F)(F)F)c3)n(-c3ccnc(N[C@@H]4CCN(C(=O)C5CC5)C4)n3)c2C1` (stereo partly drawn), the IC50 was 63.1 nM.
For `NC(=O)C1Cc2nc(-c3ccc(F)c(C(F)(F)F)c3)n(-c3ccnc(N[C@@H]4CCCN(C(=O)C5CC5)C4)n3)c2C1` (stereo partly drawn), the IC50 was 104 nM.
`CNC(=O)C1Cc2nc(-c3ccc4c(c3)OCO4)n(-c3ccnc(N[C@@H]4CCN(C(=O)C5CC5)C4)n3)c2C1` (stereo partly drawn) was tested, and the IC50 was 93.9 nM.
`NC(=O)C1Cc2nc(-c3ccc(Cl)c(Cl)c3)n(-c3ccnc(N[C@H]4CCN(C(=O)C5CC5)C4)n3)c2C1` (stereo partly drawn) gave an IC50 of 15.4 nM.
`NC(=O)C1Cc2nc(-c3ccc(F)c(C(F)(F)F)c3)n(-c3ccnc(N[C@H]4CCN(C(=O)C5CC5)C4)n3)c2C1` (stereo partly drawn) was tested, and the IC50 was 183 nM.
With `CCOC(=O)C1Cc2nc(-c3ccc4c(c3)CCO4)n(-c3ccnc(N[C@H]4CCN(C(=O)C5CC5)C4)n3)c2C1` (stereo partly drawn) the IC50 was 158 nM.
With `CCOC(=O)C1Cc2nc(-c3ccc4c(c3)OCO4)n(-c3ccnc(N[C@H]4CCCN(C(=O)C5CC5)C4)n3)c2C1` (stereo partly drawn) the IC50 was 10.5 nM.
In the case of `CNC(=O)C1Cc2nc(-c3ccc(F)c(C(F)(F)F)c3)n(-c3ccnc(N[C@H]4CCCN(C(=O)C5CC5)C4)n3)c2C1` (stereo partly drawn), the IC50 is reported as 30.6 nM.
`NC(=O)C1Cc2nc(-c3ccc4c(c3)CCO4)n(-c3ccnc(N[C@H]4CCCN(C(=O)C5CC5)C4)n3)c2C1` (stereo partly drawn) was tested, and the IC50 was 9.06 nM.
Work on `NC(=O)C1Cc2nc(-c3ccc(Cl)c(Cl)c3)n(-c3ccnc(N[C@@H]4CCN(C(=O)C5CC5)C4)n3)c2C1` (stereo partly drawn) yielded an IC50 of 16.4 nM.
`CCOC(=O)C1Cc2nc(-c3ccc(F)c(C(F)(F)F)c3)n(-c3ccnc(N[C@H]4CCN(C(=O)C5CC5)C4)n3)c2C1` (stereo partly drawn) was tested, and the IC50 was 453 nM.
`NC(=O)C1Cc2nc(-c3ccc4c(c3)CCO4)n(-c3ccnc(N[C@@H]4CCN(C(=O)C5CC5)C4)n3)c2C1` (stereo partly drawn) gave an IC50 of 63 nM.

The compounds below were run on Cortical neurone (assay: cells). Details: Rattus norvegicus, 120 h, read-out: Activity.
`NC(=O)C1Cc2nc(-c3ccc4c(c3)OCO4)n(-c3ccnc(N[C@H]4CCCN(C(=O)C5CC5)C4)n3)c2C1` (stereo partly drawn) gave a viability at 10 µM of 55.1%.
`NC(=O)C1Cc2nc(-c3ccc4c(c3)CCO4)n(-c3ccnc(N[C@H]4CCCN(C(=O)C5CC5)C4)n3)c2C1` (stereo partly drawn) gave a viability at 10 µM of 53%.
